Where two headings read alike, the source gives them in different places.
Assays:
[1] = Pharmacokinetics in beagles, single-dose regimen of TRQI (i.v.) or TRQC (oral), plasma LC-MS/MS; type: in vivo, beagle; settings: for AUC(0-t) / Cmax / Tmax / half-life: beagle, dog, plasma; for AUC(0-t): read-out: AUC0–24 h; for Cmax / Tmax / half-life: mean of six beagles
Experimental: (§1) 100 μL plasma sample was drawn and transferred to 1.5 mL centrifuge tube prior to 300 μL protein precipitant (3:1 [v/v] methanol/acetonitrile, containing 0.1% formic acid and 100 ng/mL IS) was added, and then the sample was vortex-mixed for 3 min. The mixture was centrifuged at 20,000 ×g for 10 min, and 100 μL supernatant was transferred to the injection vial and analyzed directly by LC–MS/MS.
(§2) This study was carried out in six beagles (three males and three females, 9.0–12.0 kg each), that were purchased from Junda Pet Hospital (Shanghai, China). This experimental protocol was approved by the Experimental Animal Ethics Committee of the Naval Military Medical University (Shanghai, China).
The six healthy beagles were divided into two groups: beagles 1–3 were all male and were assigned to the first group, and beagles 4–6 were all females and assigned to the second group. The two-cycle, crossover study was designed with a 7-day wash out period. For the single-administration process, the dogs in the first group were injected intravenously with 0.5 mL/kg TRQI (one-third of the normal daily dose), and blood samples were collected at 0, 5, 10, 15, 20, 30, and 45 min and then at 1, 2, 4, 6, 8, 12, and 24 h (a total of 14 time points) after injection. For each blood sample, 1 mL of blood was collected from the forelimb vein in heparin-treated tubes. The dogs in the second group were orally administrated 0.09 g/kg TRQC (one-third of the normal daily dose, and blood samples were collected in the same manner at 0, 10, 20, and 40 min and then at 1, 1.5, 2, 2.5, 3, 4, 6, 8, 12, and 24 h (a total of 14 time points). All blood samples were centrifuged at 4000 × g for 5 min, and each supernatant was collected and aliquoted. After a 7-day wash out period, the dogs in each group were administrated the other Tanreqing formulation in a crossover design, and blood samples were collected and processed in the same way.
(§3) All data obtained were analyzed using Drug and Statistics (DAS) 2.0 software (Chinese Society of Pharmacology), and a non-compartment analysis was used to calculate plasma pharmacokinetic parameters. The principal components of TRQI and TRQC were compared with an analysis of variance (ANOVA) and/or a two-tailed student-t test.

[2] = Stability of analytes in dog plasma (QC samples); type: in vitro ADME
Experimental: The stock solutions of all analytes were further mixed and diluted with methanol/water (10:90, v/v) solution to prepare the working solutions. […] The QC samples were stored in a refrigerator at – 80 °C until retrieval (see Additional file 1). The stability, which includes short-term stability (6 h at room temperature), long-term stability (− 80 °C for 30 days in the refrigerator), and freeze–thaw stability (three cycles from − 80 °C to room temperature), were assessed using QC samples at three concentration levels in three replicates. […] Similarly, there were no obvious effects on the analysis results of the samples with respect to short-term stability or long-term storage.

[3] = Pharmacokinetics in beagles, multiple-dose regimen (once per day for 7 days) of TRQI or TRQC, plasma LC-MS/MS; type: in vivo; settings: beagle, dog; for Cmax at 7 days / Tmax at 7 days / half-life at 7 days: mean
Experimental: as §1, §2
After the end of the single-dose experiment, the dogs in group one were given 0.5 mL/kg injection of TRQI once per day for 7 days following the wash out period, and the dogs in group two were given 0.09 g/kg TRQC once per day for 7 days. After the seventh administration, blood samples were collected at 0, 10, 20, and 40 min and then at 1, 1.5, 2, 2.5, 3, 4, 6, 8, 12, and 24 h (a total of 14 time points) and were processed as described in “Single-dose regimen” section. The resulting plasma samples were used to determine the steady-state plasma concentration of TRQI and TRQC. A crossover study was again carried out in both groups, as described in “Single-dose regimen” section, after a 7-day washing period.
as §3

[4] = cited from earlier work; for t1/2: Tanreqing injection
[5] = both sexes, iv, single i.v. dose of TRQI 0.5 mL/kg
[6] = both sexes, single oral dose of TRQC 0.09 g/kg
[7] = n = 3, high QC: nominal 200 ng/mL baicalin, 1000 ursodeoxycholic acid, 100 chenodeoxycholic acid and chlorogenic acid
[8] = n = 3, low QC: nominal 4 ng/mL baicalin, 20 ursodeoxycholic acid, 2 chenodeoxycholic acid and chlorogenic acid
[9] = n = 3, middle QC: nominal 20 ng/mL baicalin, 100 ursodeoxycholic acid, 10 chenodeoxycholic acid and chlorogenic acid
[10] = both sexes, iv, TRQI 0.5 mL/kg once per day for 7 days
[11] = both sexes, po, TRQC 0.09 g/kg once per day for 7 days

O=C(O)[C@H]1O[C@@H](Oc2cc3oc(-c4ccccc4)cc(=O)c3c(O)c2O)[C@H](O)[C@@H](O)[C@@H]1O [Baicalin, baicalin]
oral availability ([1]; TRQC in dogs): small | AUC(0-t) ([1]; both sexes, iv, 0.5 mL/kg, single TRQI 0.5 mL/kg, Mean): 44.4 ng·h/mL | Cmax [1, 5]: 1050 ng/mL | Tmax [1, 5]: 0.08 h | half-life [1, 5]: 405 min | AUC(0-t) ([1]; both sexes, po, 0.09 g/kg, single TRQCs 0.09 g/kg, Mean): 14.1 ng·h/mL | Cmax [1, 6]: 4.79 ng/mL | Tmax [1, 6]: 3.78 h | half-life [1, 6]: 298 min | AUC(0-t) ([1]; female, iv, 0.5 mL/kg, single TRQI 0.5 mL/kg, beagle No 4): 161 ng·h/mL | AUC(0-t) ([1]; female, iv, 0.5 mL/kg, single TRQI 0.5 mL/kg, beagle No 5): 1.98 ng·h/mL | AUC(0-t) ([1]; female, iv, 0.5 mL/kg, single TRQI 0.5 mL/kg, beagle No 6): 39.9 ng·h/mL | AUC(0-t) ([1]; female, po, 0.09 g/kg, single TRQCs 0.09 g/kg, beagle No 4): 15.6 ng·h/mL | AUC(0-t) ([1]; female, po, 0.09 g/kg, single TRQCs 0.09 g/kg, beagle No 5): 1.15 ng·h/mL | AUC(0-t) ([1]; female, po, 0.09 g/kg, single TRQCs 0.09 g/kg, beagle No 6): 3.38 ng·h/mL | AUC(0-t) ([1]; male, iv, 0.5 mL/kg, single TRQI 0.5 mL/kg, beagle No 1): 44.5 ng·h/mL | AUC(0-t) ([1]; male, iv, 0.5 mL/kg, single TRQI 0.5 mL/kg, beagle No 2): 18.7 ng·h/mL | AUC(0-t) ([1]; male, iv, 0.5 mL/kg, single TRQI 0.5 mL/kg, beagle No 3): 0.47 ng·h/mL | AUC(0-t) ([1]; male, po, 0.09 g/kg, single TRQCs 0.09 g/kg, beagle No 1): 16 ng·h/mL | AUC(0-t) ([1]; male, po, 0.09 g/kg, single TRQCs 0.09 g/kg, beagle No 2): 36.4 ng·h/mL | AUC(0-t) ([1]; male, po, 0.09 g/kg, single TRQCs 0.09 g/kg, beagle No 3): 11.8 ng·h/mL | Freeze-thaw stability (3 cycles) Mean ± S.D. concentration [2, 7]: 202.81 ± 10.87 ng/mL | Long-term stability (30 days at – 80 °C) Mean ± S.D. concentration [2, 7]: 175.01 ± 4.57 ng/mL | Short-term stability (6 h at room temperature) Mean ± S.D concentration [2, 7]: 182.83 ± 7.72 ng/mL | Freeze-thaw stability (3 cycles) Mean ± S.D. concentration [2, 8]: 3.97 ± 0.36 ng/mL | Long-term stability (30 days at – 80 °C) Mean ± S.D. concentration [2, 8]: 3.50 ± 0.07 ng/mL | Short-term stability (6 h at room temperature) Mean ± S.D concentration [2, 8]: 4.01 ± 0.31 ng/mL | Freeze-thaw stability (3 cycles) Mean ± S.D. concentration [2, 9]: 17.88 ± 0.92 ng/mL | Long-term stability (30 days at – 80 °C) Mean ± S.D. concentration [2, 9]: 17.47 ± 0.42 ng/mL | Short-term stability (6 h at room temperature) Mean ± S.D concentration [2, 9]: 18.43 ± 0.75 ng/mL | AUC(0-inf) ([3]; both sexes, iv, 0.5 mL/kg, TRQI 0.5 mL/kg for 7 days, Mean): 548 ng·h/mL | AUC(0-t) ([3]; both sexes, iv, 0.5 mL/kg, TRQI 0.5 mL/kg for 7 days, Mean, read-out: AUC0–24 h): 395 ng·h/mL | Cmax at 7 days [3, 10]: 1370 ng/mL | Tmax at 7 days [3, 10]: 0.11 h | half-life at 7 days [3, 10]: 332 min | AUC(0-inf) ([3]; both sexes, po, 0.09 g/kg, TRQC 0.09 g/kg for 7 days, Mean): 142 ng·h/mL | AUC(0-t) ([3]; both sexes, po, 0.09 g/kg, TRQC 0.09 g/kg for 7 days, Mean, read-out: AUC0–24 h): 107 ng·h/mL | Cmax at 7 days [3, 11]: 12.2 ng/mL | Tmax at 7 days [3, 11]: 7.25 h | half-life at 7 days [3, 11]: 728 min | AUC(0-inf) ([3]; female, iv, 0.5 mL/kg, TRQI 0.5 mL/kg for 7 days, beagle No. 4): 670 ng·h/mL | AUC(0-t) ([3]; female, iv, 0.5 mL/kg, TRQI 0.5 mL/kg for 7 days, beagle No. 4, read-out: AUC0–24 h): 527 ng·h/mL | AUC(0-inf) ([3]; female, iv, 0.5 mL/kg, TRQI 0.5 mL/kg for 7 days, beagle No. 5): 711 ng·h/mL | AUC(0-t) ([3]; female, iv, 0.5 mL/kg, TRQI 0.5 mL/kg for 7 days, beagle No. 5, read-out: AUC0–24 h): 526 ng·h/mL | AUC(0-inf) ([3]; female, iv, 0.5 mL/kg, TRQI 0.5 mL/kg for 7 days, beagle No. 6): 1290 ng·h/mL | AUC(0-t) ([3]; female, iv, 0.5 mL/kg, TRQI 0.5 mL/kg for 7 days, beagle No. 6, read-out: AUC0–24 h): 865 ng·h/mL | AUC(0-inf) ([3]; female, po, 0.09 g/kg, TRQC 0.09 g/kg for 7 days, beagle No. 4): 88.3 ng·h/mL | AUC(0-t) ([3]; female, po, 0.09 g/kg, TRQC 0.09 g/kg for 7 days, beagle No. 4, read-out: AUC0–24 h): 68 ng·h/mL | AUC(0-inf) ([3]; female, po, 0.09 g/kg, TRQC 0.09 g/kg for 7 days, beagle No. 5): 398 ng·h/mL | AUC(0-t) ([3]; female, po, 0.09 g/kg, TRQC 0.09 g/kg for 7 days, beagle No. 5, read-out: AUC0–24 h): 245 ng·h/mL | AUC(0-inf) ([3]; female, po, 0.09 g/kg, TRQC 0.09 g/kg for 7 days, beagle No. 6): 44.3 ng·h/mL | AUC(0-t) ([3]; female, po, 0.09 g/kg, TRQC 0.09 g/kg for 7 days, beagle No. 6, read-out: AUC0–24 h): 32.5 ng·h/mL | AUC(0-inf) ([3]; male, iv, 0.5 mL/kg, TRQI 0.5 mL/kg for 7 days, beagle No. 1): 45.8 ng·h/mL | AUC(0-t) ([3]; male, iv, 0.5 mL/kg, TRQI 0.5 mL/kg for 7 days, beagle No. 1, read-out: AUC0–24 h): 42.6 ng·h/mL | AUC(0-inf) ([3]; male, iv, 0.5 mL/kg, TRQI 0.5 mL/kg for 7 days, beagle No. 2): 534 ng·h/mL | AUC(0-t) ([3]; male, iv, 0.5 mL/kg, TRQI 0.5 mL/kg for 7 days, beagle No. 2, read-out: AUC0–24 h): 370 ng·h/mL | AUC(0-inf) ([3]; male, iv, 0.5 mL/kg, TRQI 0.5 mL/kg for 7 days, beagle No. 3): 37.6 ng·h/mL | AUC(0-t) ([3]; male, iv, 0.5 mL/kg, TRQI 0.5 mL/kg for 7 days, beagle No. 3, read-out: AUC0–24 h): 36.8 ng·h/mL | AUC(0-inf) ([3]; male, po, 0.09 g/kg, TRQC 0.09 g/kg for 7 days, beagle No. 1): 80.5 ng·h/mL | AUC(0-t) ([3]; male, po, 0.09 g/kg, TRQC 0.09 g/kg for 7 days, beagle No. 1, read-out: AUC0–24 h): 79.6 ng·h/mL | AUC(0-inf) ([3]; male, po, 0.09 g/kg, TRQC 0.09 g/kg for 7 days, beagle No. 2): 164 ng·h/mL | AUC(0-t) ([3]; male, po, 0.09 g/kg, TRQC 0.09 g/kg for 7 days, beagle No. 2, read-out: AUC0–24 h): 149 ng·h/mL | AUC(0-inf) ([3]; male, po, 0.09 g/kg, TRQC 0.09 g/kg for 7 days, beagle No. 3): 74.3 ng·h/mL | AUC(0-t) ([3]; male, po, 0.09 g/kg, TRQC 0.09 g/kg for 7 days, beagle No. 3, read-out: AUC0–24 h): 69.7 ng·h/mL | t1/2 ([4]; Hu's study): 48 min | t1/2 ([4]; another study): 216 min | clearance rate ([4]; rat, TRQI): 1.46 L/h/kg | volume of distribution ([4]; rat, TRQI): 1.07 L/kg
